Measured values: patent US11572590B2, “Methods for evaluating tumor cell spheroids using 3D microfluidic cell culture device” (Dana-Farber Cancer Institute, Inc., priority 2017, dated 2023)
Like-named read-outs stand apart in the source and are kept apart here.

Tests used:
Assay in all cases: SelectScreen Kinase Profiling, single point inhibition and IC50 for off-target kinases
Format in all cases: biochemical
[1] = target: T1, off-target kinases (Homo sapiens, UniProt P43403); settings: ZAP70, ZLYTE, ATP Km app
T1 sequence (P43403 1-619): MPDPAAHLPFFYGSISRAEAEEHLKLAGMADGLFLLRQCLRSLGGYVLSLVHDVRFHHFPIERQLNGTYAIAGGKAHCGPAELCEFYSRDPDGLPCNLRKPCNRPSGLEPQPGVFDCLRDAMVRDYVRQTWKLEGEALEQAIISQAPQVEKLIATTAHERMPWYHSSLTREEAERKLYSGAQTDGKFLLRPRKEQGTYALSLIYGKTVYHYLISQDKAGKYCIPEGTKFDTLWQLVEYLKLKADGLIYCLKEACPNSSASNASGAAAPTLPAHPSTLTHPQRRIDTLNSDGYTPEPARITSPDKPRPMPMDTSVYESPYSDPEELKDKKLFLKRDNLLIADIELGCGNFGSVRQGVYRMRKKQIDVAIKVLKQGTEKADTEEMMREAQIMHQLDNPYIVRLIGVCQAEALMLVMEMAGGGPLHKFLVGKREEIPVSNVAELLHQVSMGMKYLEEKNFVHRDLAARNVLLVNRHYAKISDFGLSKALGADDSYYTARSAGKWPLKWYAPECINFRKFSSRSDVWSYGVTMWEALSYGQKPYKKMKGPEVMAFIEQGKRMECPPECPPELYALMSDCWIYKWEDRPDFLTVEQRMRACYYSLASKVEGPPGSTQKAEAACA

[2] = target: T2, off-target kinases (Homo sapiens, UniProt Q16832, T654M); settings: DDR2 T654M, LanthaScreen Binding
T2 sequence (Q16832 22-855 T654M): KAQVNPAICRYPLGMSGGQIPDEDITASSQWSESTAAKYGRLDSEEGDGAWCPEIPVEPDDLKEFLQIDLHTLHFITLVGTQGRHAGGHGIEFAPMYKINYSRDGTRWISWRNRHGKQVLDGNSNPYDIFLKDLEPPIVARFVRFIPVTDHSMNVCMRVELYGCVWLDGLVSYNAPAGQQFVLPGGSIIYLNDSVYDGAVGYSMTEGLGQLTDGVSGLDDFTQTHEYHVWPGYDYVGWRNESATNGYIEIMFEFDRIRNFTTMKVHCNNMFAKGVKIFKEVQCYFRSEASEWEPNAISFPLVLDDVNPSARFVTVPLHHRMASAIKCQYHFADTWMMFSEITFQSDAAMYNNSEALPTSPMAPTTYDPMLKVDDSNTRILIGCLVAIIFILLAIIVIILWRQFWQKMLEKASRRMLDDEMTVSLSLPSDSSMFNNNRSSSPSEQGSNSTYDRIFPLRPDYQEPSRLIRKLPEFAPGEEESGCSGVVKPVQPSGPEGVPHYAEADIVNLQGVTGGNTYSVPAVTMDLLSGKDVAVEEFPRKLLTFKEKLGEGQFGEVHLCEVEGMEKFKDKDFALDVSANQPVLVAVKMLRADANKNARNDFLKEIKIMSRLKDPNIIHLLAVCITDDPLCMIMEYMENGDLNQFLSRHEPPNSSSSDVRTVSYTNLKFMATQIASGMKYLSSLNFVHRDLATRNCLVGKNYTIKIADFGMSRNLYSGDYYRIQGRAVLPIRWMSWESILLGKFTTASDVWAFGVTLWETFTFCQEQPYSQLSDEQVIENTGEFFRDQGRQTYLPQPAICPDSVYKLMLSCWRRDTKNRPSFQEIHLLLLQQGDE

[3] = target: off-target kinases (Homo sapiens, UniProt P49336); settings: CDK8/cyclin C, LanthaScreen Binding
Chain of off-target kinases (Homo sapiens, UniProt P49336) (P49336 whole entry): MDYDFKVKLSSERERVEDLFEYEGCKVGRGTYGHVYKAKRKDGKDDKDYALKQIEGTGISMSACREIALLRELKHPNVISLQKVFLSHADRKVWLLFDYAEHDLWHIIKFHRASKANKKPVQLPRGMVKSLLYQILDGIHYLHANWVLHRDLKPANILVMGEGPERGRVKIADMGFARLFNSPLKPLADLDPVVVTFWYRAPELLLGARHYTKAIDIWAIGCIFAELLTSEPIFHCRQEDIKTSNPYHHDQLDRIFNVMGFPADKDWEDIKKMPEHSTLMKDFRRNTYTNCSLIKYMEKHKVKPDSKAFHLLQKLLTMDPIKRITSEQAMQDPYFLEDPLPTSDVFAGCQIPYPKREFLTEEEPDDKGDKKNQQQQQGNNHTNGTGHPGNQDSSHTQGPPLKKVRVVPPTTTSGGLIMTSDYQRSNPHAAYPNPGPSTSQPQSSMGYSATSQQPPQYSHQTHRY

[4] = target: off-target kinases (Homo sapiens, UniProt P35968); settings: KDR (VEGFR2), ATP Km app, ZLYTE
Chain of off-target kinases (Homo sapiens, UniProt P35968) (P35968 20-1356): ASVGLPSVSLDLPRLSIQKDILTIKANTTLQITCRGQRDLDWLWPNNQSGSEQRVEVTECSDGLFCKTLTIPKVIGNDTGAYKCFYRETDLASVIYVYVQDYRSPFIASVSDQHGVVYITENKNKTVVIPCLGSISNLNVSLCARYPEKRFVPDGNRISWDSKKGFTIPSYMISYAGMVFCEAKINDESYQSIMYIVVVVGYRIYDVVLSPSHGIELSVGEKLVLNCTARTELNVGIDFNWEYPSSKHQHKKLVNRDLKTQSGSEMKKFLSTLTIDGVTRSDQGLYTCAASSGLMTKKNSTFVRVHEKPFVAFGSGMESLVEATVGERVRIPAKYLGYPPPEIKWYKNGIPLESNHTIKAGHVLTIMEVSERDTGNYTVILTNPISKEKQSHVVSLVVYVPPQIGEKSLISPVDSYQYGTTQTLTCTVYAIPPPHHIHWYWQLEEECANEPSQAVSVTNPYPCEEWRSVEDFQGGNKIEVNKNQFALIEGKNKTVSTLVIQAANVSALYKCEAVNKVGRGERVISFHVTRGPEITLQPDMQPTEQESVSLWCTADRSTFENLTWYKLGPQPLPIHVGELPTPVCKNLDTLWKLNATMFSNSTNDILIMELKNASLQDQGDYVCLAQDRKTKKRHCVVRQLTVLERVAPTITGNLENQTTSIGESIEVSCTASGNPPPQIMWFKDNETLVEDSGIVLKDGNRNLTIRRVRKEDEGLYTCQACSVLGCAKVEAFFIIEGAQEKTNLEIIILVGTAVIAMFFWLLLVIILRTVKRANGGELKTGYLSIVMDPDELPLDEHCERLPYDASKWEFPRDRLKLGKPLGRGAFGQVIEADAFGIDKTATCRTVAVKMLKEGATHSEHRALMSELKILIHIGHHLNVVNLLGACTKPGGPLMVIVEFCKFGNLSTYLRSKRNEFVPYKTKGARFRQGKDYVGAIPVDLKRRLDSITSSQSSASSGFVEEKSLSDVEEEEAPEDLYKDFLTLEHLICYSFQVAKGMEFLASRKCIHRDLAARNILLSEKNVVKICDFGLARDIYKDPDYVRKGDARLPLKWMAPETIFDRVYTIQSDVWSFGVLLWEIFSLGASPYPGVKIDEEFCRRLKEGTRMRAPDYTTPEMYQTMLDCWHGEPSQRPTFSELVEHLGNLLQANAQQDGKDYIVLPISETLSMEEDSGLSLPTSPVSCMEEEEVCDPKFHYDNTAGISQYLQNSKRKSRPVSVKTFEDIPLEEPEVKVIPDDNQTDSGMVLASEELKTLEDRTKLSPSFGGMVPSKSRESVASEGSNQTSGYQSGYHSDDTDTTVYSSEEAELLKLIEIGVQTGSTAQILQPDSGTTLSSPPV

[5] = target: off-target kinases (Homo sapiens, UniProt P06239); settings: LCK, ZLYTE, ATP Km app
Chain of off-target kinases (Homo sapiens, UniProt P06239) (P06239 whole entry): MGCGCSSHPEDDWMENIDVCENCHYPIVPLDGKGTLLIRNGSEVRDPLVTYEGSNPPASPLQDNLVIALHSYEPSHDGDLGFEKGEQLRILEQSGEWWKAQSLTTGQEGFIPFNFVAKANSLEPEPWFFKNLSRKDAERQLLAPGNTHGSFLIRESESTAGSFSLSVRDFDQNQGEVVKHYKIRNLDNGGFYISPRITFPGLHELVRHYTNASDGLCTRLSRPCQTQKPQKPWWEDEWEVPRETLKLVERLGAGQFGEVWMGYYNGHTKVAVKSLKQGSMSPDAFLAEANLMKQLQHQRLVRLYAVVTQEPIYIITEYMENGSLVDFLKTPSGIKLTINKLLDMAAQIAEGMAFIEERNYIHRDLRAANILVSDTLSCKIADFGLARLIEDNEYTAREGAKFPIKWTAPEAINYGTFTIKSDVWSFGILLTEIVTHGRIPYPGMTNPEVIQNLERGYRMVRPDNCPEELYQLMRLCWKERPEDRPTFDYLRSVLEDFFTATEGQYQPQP

**Q.** Which inhibition ([1]; read-out: % Inhibition 1) does the source give for `N#Cc1cc(-c2ncnc(Nc3ccc(N4CCN(C5COC5)CC4)cc3)n2)ccc1OC1CCOCC1` [Compound 1, 5-(4-((4-(4-(oxetan-3-yl)piperazin-1-yl)phenyl)amino)-1,3,5-triazin-2-yl)-2-((tetrahydro-2H-pyran-4-yl)oxy)benzonitrile] here?
**A.** 4%

**Q.** And the inhibition ([1]; read-out: % Inhibition 2)?
**A.** 4%

**Q.** What about the inhibition ([1]; read-out: % Inhibition Avg) of the same compound?
**A.** 4%

**Q.** What about the inhibition ([2]; read-out: % Inhibition 1) of the same compound?
**A.** 56%

**Q.** What about the inhibition ([2]; read-out: % Inhibition 2) of the same compound?
**A.** 57%

**Q.** And the inhibition ([2]; read-out: % Inhibition Avg)?
**A.** 57%

**Q.** And the inhibition ([3]; read-out: % Inhibition 1)?
**A.** 0%

**Q.** And the inhibition ([3]; read-out: % Inhibition 2)?
**A.** 3%

**Q.** And the inhibition ([3]; read-out: % Inhibition Avg)?
**A.** 1%

**Q.** What about the inhibition ([4]; read-out: % Inhibition 1) of the same compound?
**A.** 51%

**Q.** What about the inhibition ([4]; read-out: % Inhibition 2) of the same compound?
**A.** 53%

**Q.** And the inhibition ([4]; read-out: % Inhibition Avg)?
**A.** 52%

**Q.** What about the inhibition ([5]; read-out: % Inhibition 1) of the same compound?
**A.** 41%

**Q.** What about the inhibition ([5]; read-out: % Inhibition 2) of the same compound?
**A.** 38%

**Q.** What about the inhibition ([5]; read-out: % Inhibition Avg) of the same compound?
**A.** 40%
